Measured values taken from the supplement of paper PMC10307832.

How the values were obtained:
Test in all cases: relative viability (nuclei count vs DMSO), 5 days (fraction); higher = more cells survive
GSK126 + Olaparib = compound: CC[C@H](C)N1C=C(C2=C(C=C(C=C21)C3=CN=C(C=C3)N4CCNCC4)C(=O)NCC5=C(C=C(NC5=O)C)C)C [GSK126] + O=C(c1cc(Cc2n[nH]c(=O)c3ccccc23)ccc1F)N1CCN(C(=O)C2CC2)CC1 [Olaparib] (partner 8 µM)
Procedure, shortened: (§1)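 After 5 days of treatment, lung cancer cells in 1536-well plates were fixed and stained in a single step (final 0.05% Triton X-100, 1% formaldehyde, 1 ug/ml Hoechst) and their nuclei counted on 4× images. Treatment had been applied by pin tool the day after seeding as one drug alone or as a fixed anchor-drug dose with five library-drug doses (not always all listed) in √10 steps. Relative viability is the nuclei count of treated wells divided by that of vehicle wells, and values are medians of duplicate plates.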

MLN4924 + Decitabine = compound: NS(=O)(=O)OC[C@@H]1C[C@@H](n2ccc3c(N[C@H]4CCc5ccccc54)ncnc32)C[C@@H]1O [MLN4924] + Nc1ncn([C@H]2C[C@H](O)[C@@H](CO)O2)c(=O)n1 [Decitabine] (partner 2 µM)
Procedure, shortened: as §1

MLN4924 + Lapatinib = compound: NS(=O)(=O)OC[C@@H]1C[C@@H](n2ccc3c(N[C@H]4CCc5ccccc54)ncnc32)C[C@@H]1O [MLN4924] + CS(=O)(=O)CCNCc1ccc(-c2ccc3ncnc(Nc4ccc(OCc5cccc(F)c5)c(Cl)c4)c3c2)o1 [Lapatinib] (partner 2 µM)
Procedure, shortened: as §1

GSK126 + Luminespib = compound: CC[C@H](C)N1C=C(C2=C(C=C(C=C21)C3=CN=C(C=C3)N4CCNCC4)C(=O)NCC5=C(C=C(NC5=O)C)C)C [GSK126] + CCNC(=O)c1noc(-c2cc(C(C)C)c(O)cc2O)c1-c1ccc(CN2CCOCC2)cc1 [Luminespib] (partner 0.01 µM)
Procedure, shortened: as §1

Cell Line | relative viability (GSK126 + Olaparib; first compound 0.08 µM) | relative viability (GSK126 + Olaparib; first compound 0.253 µM) | relative viability (GSK126 + Olaparib; first compound 0.8 µM) | relative viability (GSK126 + Olaparib; first compound 2.53 µM) | relative viability (GSK126 + Olaparib; first compound 8 µM) | relative viability (MLN4924 + Decitabine; first compound 0.04 µM) | relative viability (MLN4924 + Decitabine; first compound 0.1265 µM) | relative viability (MLN4924 + Decitabine; first compound 0.4 µM) | relative viability (MLN4924 + Decitabine; first compound 1.265 µM) | relative viability (MLN4924 + Decitabine; first compound 4 µM) | relative viability (MLN4924 + Lapatinib; first compound 0.04 µM) | relative viability (MLN4924 + Lapatinib; first compound 0.1265 µM) | relative viability (MLN4924 + Lapatinib; first compound 0.4 µM) | relative viability (MLN4924 + Lapatinib; first compound 1.265 µM) | relative viability (MLN4924 + Lapatinib; first compound 4 µM) | relative viability (GSK126 + Luminespib; first compound 0.08 µM) | relative viability (GSK126 + Luminespib; first compound 0.253 µM) | relative viability (GSK126 + Luminespib; first compound 0.8 µM) | relative viability (GSK126 + Luminespib; first compound 2.53 µM) | relative viability (GSK126 + Luminespib; first compound 8 µM)
LU99A | 0.245 | 0.258 | 0.266 | 0.243 | 0.232 | 0.595 | 0.298 | 0.341 | 0.176 | 0.14 | 0.779 | 0.339 | 0.294 | 0.145 | 0.151 | 0.246 | 0.328 | 0.208 | 0.253 | 0.199
LXF-289 | 1.12 | 1.11 | 1.05 | 1.01 | 1.02 | 0.346 | 0.323 | 0.28 | 0.183 | 0.133 | 0.804 | 0.682 | 0.416 | 0.184 | 0.15 | 0.736 | 0.652 | 0.574 | 0.661 | 0.747
NCI-H23 | 0.299 | 0.361 | 0.312 | 0.3 | 0.263 | 0.344 | 0.329 | 0.276 | 0.249 | 0.21 | 0.282 | 0.232 | 0.202 | 0.125 | 0.169 | 0.224 | 0.17 | 0.257 | 0.226 | 0.208
NCI-H322M | 0.818 | 0.807 | 0.806 | 0.829 | 0.78 | 0.707 | 0.65 | 0.62 | 0.469 | 0.491 | 0.796 | 1.01 | 1.19 | 0.301 | 0.285 | 0.822 | 0.845 | 0.85 | 0.978 | 0.834
NCI-H358 | 0.705 | 0.723 | 0.555 | 0.613 | 0.751 | 0.2 | 0.206 | 0.183 | 0.111 | 0.148 | 0.585 | 0.654 | 0.345 | 0.25 | 0.236 | 0.39 | 0.382 | 0.366 | 0.422 | 0.283
NCI-H460 | 0.434 | 0.397 | 0.388 | 0.326 | 0.29 | 0.524 | 0.462 | 0.325 | 0.0402 | 0.0249 | 0.657 | 0.0947 | 0.0407 | 0.016 | 0.0144 | 0.0467 | 0.0392 | 0.0346 | 0.0287 | 0.0416
NCI-H520 | 0.401 | 0.347 | 0.311 | 0.462 | 0.37 | 0.447 | 0.338 | 0.249 | 0.148 | 0.207 | 0.594 | 0.437 | 0.323 | 0.17 | 0.162 | 0.22 | 0.221 | 0.236 | 0.231 | 0.237
NCI-H596 | 0.713 | 0.703 | 0.702 | 0.847 | 0.758 | 1.09 | 1.1 | 0.933 | 0.97 | 0.727 | 1.1 | 1.05 | 0.438 | 0.397 | 0.38 | 1.11 | 0.319 | 0.277 | 0.263 | 0.219
NCI-H647 | 0.742 | 0.438 | 0.57 | 0.714 | 0.56 | 0.363 | 0.221 | 0.142 | 0.0732 | 0.0787 | 0.817 | 0.539 | 0.0888 | 0.0473 | 0.0818 | 0.358 | 0.193 | 0.144 | 0.202 | 0.124
NCI-H650 | 0.446 | 0.373 | 0.363 | 0.405 | 0.389 | 0.272 | 0.253 | 0.201 | 0.167 | 0.165 | 0.492 | 0.543 | 0.26 | 0.166 | 0.169 | 0.92 | 0.787 | 0.744 | 0.834 | 0.876
NCI-H661 | 0.706 | 0.74 | 0.722 | 0.689 | 0.705 | 0.587 | 0.539 | 0.422 | 0.281 | 0.331 | 0.538 | 0.632 | 0.499 | 0.228 | 0.28 | 0.908 | 0.884 | 0.905 | 0.873 | 0.944
NCI-H727 | 0.866 | 0.805 | 0.68 | 0.812 | 0.646 | 0.783 | 0.823 | 0.546 | 0.493 | 0.502 | 0.692 | 0.704 | 0.352 | 0.24 | 0.192 | 0.482 | 0.375 | 0.421 | 0.345 | 0.336
NCI-H838 | 0.82 | 0.817 | 0.738 | 0.714 | 0.769 | 0.351 | 0.257 | 0.224 | 0.176 | 0.186 | 0.754 | 0.273 | 0.257 | 0.126 | 0.148 | 0.39 | 0.319 | 0.357 | 0.302 | 0.34
NCI-H1355 | 0.809 | 0.754 | 0.772 | 0.752 | 0.774 | 0.367 | 0.307 | 0.321 | 0.215 | 0.184 | 0.952 | 1.02 | 0.64 | 0.181 | 0.166 | 0.783 | 0.753 | 0.777 | 0.881 | 0.806
NCI-H1395 | 0.468 | 0.465 | 0.438 | 0.456 | 0.414 | 0.704 | 0.596 | 0.461 | 0.359 | 0.346 | 0.793 | 0.986 | 0.5 | 0.39 | 0.351 | 0.64 | 0.62 | 0.606 | 0.689 | 0.545
